Data reported in patent publication US20110060268A1, “NAIL TREATMENT DEVICE” (POWER PAPER LTD., priority 2008, published 2011).
Where a name gives a salt, the structure may show the parent alone.

Assays:
Type in all cases: in vivo, patients
[1] = Clinical trial: safety and tolerability of iontophoretic terbinafine delivery; details: terbinafine delivered into the nail with the iontophoretic device, nail onychomycosis
Method: (§1) A clinical trial was conducted to evaluate delivery of terbinafine HCl with an iontophoretic device according to an aspect of the present invention in patients with toenail onychomycosis. 38 patients suffering from distal and lateral subungual toenail onychomycosis were enrolled into the study and were divided randomly into group A (20 subjects) and group B (18 subjects). Onychomycosis was confirmed by both KOH examination and mycological culture, wherein samples were taken from the distal parts of the nail. Nail samples were divided, one part being used for direct KOH examination and the second part for fungal culture using Sabouraud's Dextrose agar (Novamed, Jerusalem, Israel). The identification of the fungus was done on the basis of morphologic characteristics. Group A was tested with 1% terbinafine HCl and an iontophoretic patch using a constant current density of 100 μA/cm^2. Group B was tested with 1% terbinafine HCl without iontophoresis. Treatment period was overnight wear, every day, five days per week, for 4 weeks. During the treatment period visits were conducted every 10 days (visits 2-4). The follow-up period was 10 weeks from the end of treatment (visit 5). At each visit nail photography and KOH examination were performed. […] Terbinafine content in affected nail samples was determined by clipping nails at visits 4 & 5. […] The eluted solution was analysed by HPLC.

[2] = system: fungal elements (KOH) in nail specimens; experiment: Clinical trial in toenail onychomycosis: KOH examination for fungal elements in nail specimens; details: 10 weeks following completion of treatment
Method: as §1

[3] = system: distal and lateral subungual toenail onychomycosis; experiment: Clinical trial in toenail onychomycosis: healthy toenail growth
Method: as §1

[4] = Terbinafine content in clipped nail samples by HPLC
Method: Group A was tested with 1% terbinafine HCl and an iontophoretic patch using a constant current density of 100 μA/cm^2. Group B was tested with 1% terbinafine HCl without iontophoresis. Treatment period was overnight wear, every day, five days per week, for 4 weeks. During the treatment period visits were conducted every 10 days (visits 2-4). The follow-up period was 10 weeks from the end of treatment (visit 5). At each visit nail photography and KOH examination were performed. Routine blood test; complete blood count and liver functions tests were performed at the before study initiation, at the end of the treatment and at the end of the follow-up period. Terbinafine content in affected nail samples was determined by clipping nails at visits 4 & 5. Nails were then weighed and cut into symmetric shapes in order to estimate their area. Symmetric shapes of nails were then cut into small pieces and inserted into tubes with 0.5 ml DDW. Subsequently, methanol 0.5 ml was added and tubes were sonicated. The eluted solution was analysed by HPLC.

With `CN(C/C=C/C#CC(C)(C)C)Cc1cccc2ccccc12` [terbinafine, terbinafine HCl] the safety and tolerability [1] was “safe and well tolerated”, the “percentage of patients having fungal elements (KOH) in nail specimens” value ([2]; active group A (iontophoretic patch, 100 μA/cm^2)) was 15% and the “percentage of patients having fungal elements (KOH) in nail specimens” value ([2]; passive group B (without iontophoresis)) was 53%. For the same molecule, the “percentage of patients having healthy toenail growth above 1.5 mm at the end of treatment” value ([3]; group A: 1% terbinafine HCl with iontophoretic patch, constant current density 100 μA/cm^2, 4 weeks) was 40%, the “percentage of patients having healthy toenail growth above 1.5 mm at the end of treatment” value ([3]; passive group B: 1% terbinafine HCl without current, 4 weeks) was 11% and the Terbinafine nail content ([4]; end of follow up period (visit 5), active group A (iontophoretic patch)) was 2.41 μg/cm^2. For the same molecule, the Terbinafine nail content ([4]; end of follow up period (visit 5), passive group B (without iontophoresis)) was 0.15 μg/cm^2 and the Terbinafine nail content ([4]; visit 4, passive group B (without iontophoresis)) was 1.34 μg/cm^2.
